Patent US20220356147A1, “COMPOUNDS AND METHODS FOR POTENTIATING COLISTIN ACTIVITY” (University of Notre Dame du Lac, priority 2019, published 2022)
Read-outs that look alike come from different tables or passages of the source.

How the values were obtained:
[1] = system: AB 4106; assay: Broth microdilution, standalone MIC of compound; type: cell-based, A. baumannii; conditions: standalone, no colistin, read-out: MIC of compound alone, AB 4106
Experimental: Broth microdilution method for the determination of minimum inhibitory concentrations: Bacteria were cultured for 4 to 6 hours in CAMHB and subcultured to 1.04×10^6 CFU/mL for AB 4106 and 1.96×10^6 CFU/mL for KP B9 in fresh CAMHB. To aliquots (1 mL) was added compound from stock solutions in DMSO, such that the compound concentration equaled the highest concentration tested. Samples were then dispensed (200 μL) into the first row of a 96-well microtiter plate in which all but the final row of subsequent wells were prefilled with 100 μL of the untreated bacterial subculture. The final row was filled with media to act as a sterility control and blank. Row one wells were mixed 6-7 times, then, 100 μL was withdrawn and transferred to row two. Row two wells were mixed 6-7 times followed by a 100 μL transfer from row two to row three. This procedure was used to serially dilute the rest of the rows of the microtiter plate, excluding the last prefilled row, which was used to measure growth in the absence of compound. Plates were then sealed with GLAD Press'n Seal and incubated under stationary conditions at 37 C. […] MIC values were determined as the minimum concentration required to achieve 90% growth inhibition compared to growth in untreated wells.

[2] = system: A. baumannii 4106 (AB4106); assay: Broth microdilution, colistin potentiation; type: cell-based
Experimental: (§1) Broth microdilution method for measurement of colistin potentiation: Bacteria were cultured for 4 to 6 hours in CAMHB and diluted to 1.04×10^6 CFU/mL for AB 4106 and 1.96×10^6 CFU/mL for KP B9 in fresh CAMHB. To aliquots (4 mL) was added compound from stock solutions in DMSO. One aliquot was not dosed to allow measurement of the colistin MIC in the absence of compound. A 1 mL aliquot of each sample was dosed with colistin, and from this 200 μL was dispensed into the first row of a 96-well microtiter plate in which all but the final row of subsequent wells was prefilled with 100 μL of the corresponding compound dosed bacterial suspension The final row was filled with media to act as a sterility control and blank. Row one wells were mixed 6-7 times, then, 100 μL was withdrawn and transferred to row two. Row two wells were mixed 6-7 times followed by a 100 μL transfer from row two to row three. This procedure was used to serially dilute the rest of the rows of the microtiter plate, excluding the last prefilled row, which was used to measure growth in the presence of compound alone. Plates were then sealed with GLAD
(§2) Press'n Seal and incubated under stationary conditions at 37° C. […] MIC values were determined as the minimum concentration required to achieve 90% growth inhibition compared to growth in untreated wells.

[3] = system: AB4106 and KPB9; assay: Initial screen for colistin resistance suppression, statements in words for both strains; type: cell-based, A. baumannii and K. pneumoniae; conditions: compound at 5 μM
Experimental: as §1, §2

[4] = system: K. pneumoniae B9 (KPB9); assay: Broth microdilution, colistin potentiation; type: cell-based; conditions: compound at 5 μM
Experimental: as §1, §2

[5] = system: AB 3941; assay: Colistin potentiation, colistin-resistant isolate panel; type: cell-based, A. baumannii; conditions: compound at 5 μM
[6] = system: AB 4112; assay: as above; type: cell-based, A. baumannii; conditions: compound at 5 μM
[7] = system: AB 17978 mcr-1; assay: as above; type: cell-based, A. baumannii; conditions: compound at 5 μM
[8] = system: AB 4119; assay: as above; type: cell-based, A. baumannii; conditions: compound at 5 μM
[9] = system: AB 3942; assay: as above; type: cell-based, A. baumannii; conditions: compound at 5 μM
[10] = compound at 5 μM, colistin alone 2048 μg/mL

Row | Structure (SMILES) | MIC ([1]; Acinetobacter baumannii, 16 h) | Colistin MIC fold reduction, AB 4106 [2, 10] | Colistin MIC fold reduction, AB 4106 ([2]; compound at 1 μM) | Colistin MIC fold reduction, AB 4106 ([2]; compound at 3 μM) | Colistin potentiation activity in words, compared to IMD-0354 [3] | also measured
1 | COc1ccc(Cl)cc1C(=O)Nc1cc(C(F)(F)F)cc(C(F)(F)F)c1 [Compound 2] | > 200 µM | ≤ 16 fold |  |  | abrogated activity | 
2 | O=C(Nc1cc(C(F)(F)F)cc(C(F)(F)F)c1)c1cccc(Cl)c1O [Compound 5] | 100 µM | 512 fold | ≤ 16 fold | 256 fold | essentially equipotent activity to IMD-0354 | 
3 | O=C(Nc1cc(C(F)(F)F)cc(C(F)(F)F)c1)c1ccccc1O [Compound 6] | > 200 µM | 512 fold |  | 512 fold | essentially equipotent activity to IMD-0354 | 
4 | O=C(Nc1cc(C(F)(F)F)cc(C(F)(F)F)c1)c1cc(-c2ccccc2)ccc1O [Compound 13] |  | 512 fold | 32 fold | 256 fold |  | Colistin MIC against AB 3941 [5]: 16 µg/mL; Colistin MIC against AB 4112 [6]: 8 µg/mL; MIC [1]: >200 µM; Colistin MIC against AB 17978 mcr-1 [7]: 4 µg/mL; Colistin MIC against AB 4106 ([2]; in presence of compound at 1 μM): 64 µg/mL; Colistin MIC against AB 4106 ([2]; in presence of compound at 3 μM): 8 µg/mL; Colistin MIC against AB 4106 ([2]; in presence of compound at 5 μM): 4 µg/mL; Colistin MIC against AB 4119 [8]: 2 µg/mL; Colistin MIC against AB 3942 [9]: 32 µg/mL
5 | O=C(Nc1cc(C(F)(F)F)cc(C(F)(F)F)c1)c1cc(Cl)cc(Cl)c1O [Compound 14] | 100 µM | 512 fold | 32 fold | 512 fold | four-fold less active than 15 | 

Further lines, with some results ahead:

Row | MIC ([1]; Acinetobacter baumannii, 16 h) | Colistin MIC fold reduction, AB 4106 [2, 10] | Colistin MIC fold reduction, AB 4106 ([2]; compound at 1 μM) | Colistin MIC fold reduction, AB 4106 ([2]; compound at 3 μM) | Structure (SMILES) | Colistin potentiation activity in words, compared to IMD-0354 [3] | also measured
6 | > 200 µM | ≤ 16 fold |  |  | O=C(Nc1cc(C(F)(F)F)cc(C(F)(F)F)c1)c1ccc(O)c(Cl)c1 [Compound 4, N-(3,5-bis(trifluoromethyl)phenyl)-3-chloro-4-hydroxybenzamide] | abolished activity | 
7 | > 200 µM | 1024 fold | 64 fold | 1024 fold | O=C(Nc1cc(C(F)(F)F)cc(C(F)(F)F)c1)c1cc(F)ccc1O [Compound 8] | essentially equipotent activity to IMD-0354 | 
8 | > 100 µM | 1024 fold | 128 fold | 1024 fold | O=C(Nc1cc(C(F)(F)F)cc(C(F)(F)F)c1)c1cc(Br)ccc1O [Compound 9] | essentially equipotent activity to IMD-0354 | 
9 | > 200 µM | 4096 fold | 128 fold | 1024 fold | O=C(Nc1cc(C(F)(F)F)cc(C(F)(F)F)c1)c1cc(I)ccc1O [Compound 10] | essentially equipotent activity to IMD-0354 | Colistin potentiation activity in words, KPB9 [4]: equipotent activity; Colistin potentiation activity in words, AB4106 ([2]; compound at 5 μM): superior activity to IMD-0354
10 | > 200 µM | 2048 fold | 128 fold | 512 fold | O=C(Nc1cc(C(F)(F)F)cc(C(F)(F)F)c1)c1ccc(C(F)(F)F)cc1O [Compound 15] | equipotent activity to IMD-0354 | 
11 | > 200 µM | 1024 fold | 128 fold | 512 fold | O=C(Nc1cc(C(F)(F)F)ccc1C(F)(F)F)c1cc(Cl)ccc1O [Compound 17] | retained activity against KPB9 and AB4106 equivalent to IMD-0354 | 
